Source: the kinase profiling compilation of Christmann-Franck et al. (2016)

Legend:
Assay in all cases: KINOMEscan competition binding
Details in all cases: compound 10.0 µM
[1] = molecular target: MAPKAPK2 (human) (UniProt P49137)
[2] = molecular target: MAPKAPK5 (human) (UniProt Q8IW41)
[3] = molecular target: CSNK2A1 (human) (UniProt P68400)
[4] = molecular target: PIK3CD (human) (UniProt O00329)
[5] = molecular target: DCLK2 (human) (UniProt Q8N568)
[6] = molecular target: PIM2 (human) (UniProt Q9P1W9)
[7] = molecular target: GSK3A (human) (UniProt P49840)
[8] = molecular target: MAP3K10 (human) (UniProt Q02779)
[9] = molecular target: MAPK12 (human) (UniProt P53778)
[10] = molecular target: DAPK1 (human) (UniProt P53355)
Chain of DAPK1 (human) (P53355 whole entry, looked up): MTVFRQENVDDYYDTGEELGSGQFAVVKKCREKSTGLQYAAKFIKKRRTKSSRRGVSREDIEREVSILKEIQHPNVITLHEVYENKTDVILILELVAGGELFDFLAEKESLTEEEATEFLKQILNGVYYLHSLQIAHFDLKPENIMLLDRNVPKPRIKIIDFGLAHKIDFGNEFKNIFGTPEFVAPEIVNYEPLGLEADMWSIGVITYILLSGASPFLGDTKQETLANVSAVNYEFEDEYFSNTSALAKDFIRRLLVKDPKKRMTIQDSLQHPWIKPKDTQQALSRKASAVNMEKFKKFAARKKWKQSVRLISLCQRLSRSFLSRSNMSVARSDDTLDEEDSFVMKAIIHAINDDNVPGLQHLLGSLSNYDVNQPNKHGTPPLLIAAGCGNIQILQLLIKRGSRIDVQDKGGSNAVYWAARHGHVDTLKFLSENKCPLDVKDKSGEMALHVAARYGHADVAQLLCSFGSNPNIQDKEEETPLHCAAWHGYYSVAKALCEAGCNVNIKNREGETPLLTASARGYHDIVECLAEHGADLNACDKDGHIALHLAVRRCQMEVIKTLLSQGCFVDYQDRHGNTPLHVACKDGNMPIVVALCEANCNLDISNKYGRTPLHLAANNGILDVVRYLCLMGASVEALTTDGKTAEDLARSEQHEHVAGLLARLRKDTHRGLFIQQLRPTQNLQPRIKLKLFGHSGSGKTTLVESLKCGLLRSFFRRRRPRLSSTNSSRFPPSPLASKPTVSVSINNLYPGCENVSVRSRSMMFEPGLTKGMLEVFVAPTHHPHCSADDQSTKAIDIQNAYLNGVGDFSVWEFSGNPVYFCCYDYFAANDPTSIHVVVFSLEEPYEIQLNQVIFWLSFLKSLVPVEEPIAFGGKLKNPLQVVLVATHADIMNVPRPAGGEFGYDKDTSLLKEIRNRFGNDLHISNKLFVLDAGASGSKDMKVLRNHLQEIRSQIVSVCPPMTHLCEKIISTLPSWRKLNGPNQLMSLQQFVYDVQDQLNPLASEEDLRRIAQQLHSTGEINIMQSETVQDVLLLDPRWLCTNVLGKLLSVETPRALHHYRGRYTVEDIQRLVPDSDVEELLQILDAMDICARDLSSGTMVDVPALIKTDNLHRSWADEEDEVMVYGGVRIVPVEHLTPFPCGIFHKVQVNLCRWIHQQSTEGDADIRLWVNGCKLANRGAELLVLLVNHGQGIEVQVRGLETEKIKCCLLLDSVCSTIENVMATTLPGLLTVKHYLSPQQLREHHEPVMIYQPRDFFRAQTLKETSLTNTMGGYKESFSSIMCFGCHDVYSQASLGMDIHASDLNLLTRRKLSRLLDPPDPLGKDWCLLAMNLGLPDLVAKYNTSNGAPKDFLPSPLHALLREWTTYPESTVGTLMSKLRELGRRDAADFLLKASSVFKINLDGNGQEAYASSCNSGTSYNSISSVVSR

[11] = molecular target: FLT4 (human) (UniProt P35916)
[12] = molecular target: EPHA4 (human) (UniProt P54764)
[13] = molecular target: BMPR2 (human) (UniProt Q13873)
[14] = molecular target: EGFR (human) (UniProt P00533)
Chain of EGFR (human) (P00533 whole entry, looked up): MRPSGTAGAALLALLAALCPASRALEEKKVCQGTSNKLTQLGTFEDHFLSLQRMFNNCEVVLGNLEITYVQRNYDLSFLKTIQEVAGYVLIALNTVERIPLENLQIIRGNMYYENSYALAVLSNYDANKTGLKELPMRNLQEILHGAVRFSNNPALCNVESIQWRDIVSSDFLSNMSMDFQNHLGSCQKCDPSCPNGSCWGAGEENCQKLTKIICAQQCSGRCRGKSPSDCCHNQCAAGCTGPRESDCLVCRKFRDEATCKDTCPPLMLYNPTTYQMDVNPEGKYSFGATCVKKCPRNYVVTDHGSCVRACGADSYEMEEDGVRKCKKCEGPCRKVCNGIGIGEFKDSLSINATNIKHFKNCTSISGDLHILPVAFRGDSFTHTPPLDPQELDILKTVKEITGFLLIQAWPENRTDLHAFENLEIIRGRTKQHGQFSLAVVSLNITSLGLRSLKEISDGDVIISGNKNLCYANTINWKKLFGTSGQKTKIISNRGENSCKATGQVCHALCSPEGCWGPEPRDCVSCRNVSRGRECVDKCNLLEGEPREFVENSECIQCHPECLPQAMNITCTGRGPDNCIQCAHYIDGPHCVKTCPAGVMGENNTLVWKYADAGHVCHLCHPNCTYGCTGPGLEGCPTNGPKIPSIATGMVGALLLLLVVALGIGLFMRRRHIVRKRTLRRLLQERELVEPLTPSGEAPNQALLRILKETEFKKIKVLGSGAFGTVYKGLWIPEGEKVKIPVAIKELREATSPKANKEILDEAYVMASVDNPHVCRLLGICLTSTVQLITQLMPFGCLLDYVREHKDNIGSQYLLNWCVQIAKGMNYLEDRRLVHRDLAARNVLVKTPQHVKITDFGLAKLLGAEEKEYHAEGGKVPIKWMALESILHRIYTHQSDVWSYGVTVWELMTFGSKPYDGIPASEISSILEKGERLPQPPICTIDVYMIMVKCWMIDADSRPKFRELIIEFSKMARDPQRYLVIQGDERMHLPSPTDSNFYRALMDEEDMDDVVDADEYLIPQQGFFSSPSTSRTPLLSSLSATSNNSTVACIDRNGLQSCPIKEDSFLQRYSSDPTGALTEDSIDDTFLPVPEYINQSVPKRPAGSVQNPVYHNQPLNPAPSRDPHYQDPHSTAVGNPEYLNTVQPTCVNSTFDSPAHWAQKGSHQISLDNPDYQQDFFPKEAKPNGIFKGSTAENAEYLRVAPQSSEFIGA

[15] = molecular target: NTRK2 (human) (UniProt Q16620)
[16] = molecular target: STK36 (human) (UniProt Q9NRP7)
[17] = molecular target: PRKACA (human) (UniProt P17612)
[18] = molecular target: NEK1 (human) (UniProt Q96PY6)
[19] = molecular target: MAP2K4 (human) (UniProt P45985)
[20] = molecular target: ADCK4 (human) (UniProt Q96D53)
[21] = molecular target: NEK2 (human) (UniProt P51955)
[22] = molecular target: TTK (human) (UniProt P33981)
[23] = molecular target: LIMK1 (human) (UniProt P53667)
[24] = molecular target: MUSK (human) (UniProt O15146)
[25] = molecular target: CSNK1A1L (human) (UniProt Q8N752)
[26] = molecular target: NTRK3 (human) (UniProt Q16288)
[27] = molecular target: MAK (human) (UniProt P20794)
[28] = molecular target: DCLK3 (human) (UniProt Q9C098)
Chain of DCLK3 (human) (Q9C098 whole entry, looked up): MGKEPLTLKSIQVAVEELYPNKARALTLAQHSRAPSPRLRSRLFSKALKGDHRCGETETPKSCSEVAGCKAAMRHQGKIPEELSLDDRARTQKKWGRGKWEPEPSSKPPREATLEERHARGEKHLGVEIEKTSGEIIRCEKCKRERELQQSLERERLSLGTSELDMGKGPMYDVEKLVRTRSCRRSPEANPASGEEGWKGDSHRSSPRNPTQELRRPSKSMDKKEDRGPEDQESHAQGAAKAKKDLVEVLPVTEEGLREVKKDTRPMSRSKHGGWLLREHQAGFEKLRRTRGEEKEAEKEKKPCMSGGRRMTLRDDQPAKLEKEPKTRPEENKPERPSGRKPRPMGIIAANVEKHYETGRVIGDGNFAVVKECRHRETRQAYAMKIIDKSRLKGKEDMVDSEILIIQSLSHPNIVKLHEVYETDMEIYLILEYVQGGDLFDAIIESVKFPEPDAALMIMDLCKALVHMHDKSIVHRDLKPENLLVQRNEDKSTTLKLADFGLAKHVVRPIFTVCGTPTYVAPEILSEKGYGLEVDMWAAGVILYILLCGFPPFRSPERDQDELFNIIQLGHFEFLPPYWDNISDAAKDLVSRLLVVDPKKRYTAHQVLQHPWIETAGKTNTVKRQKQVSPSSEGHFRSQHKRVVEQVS

[29] = molecular target: SIK2 (human) (UniProt Q9H0K1)
[30] = molecular target: HCK (human) (UniProt P08631)
[31] = molecular target: MAPK14 (human) (UniProt Q16539)
[32] = molecular target: CDKL5 (human) (UniProt O76039)
[33] = molecular target: STK35 (human) (UniProt Q8TDR2)
[34] = molecular target: CAMK2A (human) (UniProt Q9UQM7)
[35] = molecular target: EPHA6 (human) (UniProt Q9UF33)
Chain of EPHA6 (human) (Q9UF33 whole entry, looked up): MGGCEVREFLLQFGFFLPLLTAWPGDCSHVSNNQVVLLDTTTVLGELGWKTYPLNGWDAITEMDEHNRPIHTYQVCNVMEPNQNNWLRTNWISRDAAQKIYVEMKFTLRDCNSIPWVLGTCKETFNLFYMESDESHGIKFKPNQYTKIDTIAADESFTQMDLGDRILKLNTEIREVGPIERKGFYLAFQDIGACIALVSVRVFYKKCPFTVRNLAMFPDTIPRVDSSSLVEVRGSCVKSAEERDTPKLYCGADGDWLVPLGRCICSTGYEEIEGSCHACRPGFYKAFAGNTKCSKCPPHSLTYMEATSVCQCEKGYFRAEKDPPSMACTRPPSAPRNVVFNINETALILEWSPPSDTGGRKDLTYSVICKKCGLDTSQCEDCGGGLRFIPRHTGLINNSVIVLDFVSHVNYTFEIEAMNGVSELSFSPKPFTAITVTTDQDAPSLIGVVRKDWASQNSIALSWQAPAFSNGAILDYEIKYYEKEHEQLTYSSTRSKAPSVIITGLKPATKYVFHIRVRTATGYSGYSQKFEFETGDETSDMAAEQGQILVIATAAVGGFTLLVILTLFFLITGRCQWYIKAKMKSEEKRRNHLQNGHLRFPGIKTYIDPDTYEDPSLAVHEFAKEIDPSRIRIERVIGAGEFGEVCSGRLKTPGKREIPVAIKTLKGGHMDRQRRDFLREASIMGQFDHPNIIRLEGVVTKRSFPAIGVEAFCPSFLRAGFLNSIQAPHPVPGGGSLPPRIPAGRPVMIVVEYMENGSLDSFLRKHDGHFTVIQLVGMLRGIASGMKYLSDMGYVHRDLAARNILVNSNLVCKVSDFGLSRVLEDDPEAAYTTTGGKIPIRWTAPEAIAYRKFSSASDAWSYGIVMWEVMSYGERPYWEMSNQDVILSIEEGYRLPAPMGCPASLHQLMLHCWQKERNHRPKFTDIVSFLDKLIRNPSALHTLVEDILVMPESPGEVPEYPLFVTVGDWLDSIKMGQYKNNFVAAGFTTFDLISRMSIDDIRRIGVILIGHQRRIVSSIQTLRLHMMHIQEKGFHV

[36] = molecular target: TIE1 (human) (UniProt P35590)
[37] = molecular target: PIK3C2G (human) (UniProt O75747)
[38] = molecular target: CDK16 (human) (UniProt Q00536)
[39] = molecular target: CLK3 (human) (UniProt P49761)

Chain of MAPKAPK5 (human) (Q8IW41 whole entry, looked up): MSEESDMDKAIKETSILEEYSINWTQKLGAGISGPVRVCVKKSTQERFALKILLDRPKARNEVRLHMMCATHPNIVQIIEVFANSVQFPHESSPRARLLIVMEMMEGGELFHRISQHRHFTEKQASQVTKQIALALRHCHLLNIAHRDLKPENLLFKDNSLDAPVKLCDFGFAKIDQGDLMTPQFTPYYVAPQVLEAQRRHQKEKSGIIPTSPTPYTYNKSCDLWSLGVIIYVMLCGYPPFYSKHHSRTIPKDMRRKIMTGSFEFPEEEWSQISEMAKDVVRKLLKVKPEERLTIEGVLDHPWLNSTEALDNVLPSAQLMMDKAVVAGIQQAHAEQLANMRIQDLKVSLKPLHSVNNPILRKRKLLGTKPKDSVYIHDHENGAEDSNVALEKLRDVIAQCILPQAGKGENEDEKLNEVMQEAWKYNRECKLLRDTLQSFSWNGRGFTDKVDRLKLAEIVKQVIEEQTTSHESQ

Row | Structure (SMILES) | kinase still bound, per cent of control [1] [%] | kinase still bound, per cent of control [2] [%] | kinase still bound, per cent of control [3] [%] | kinase still bound, per cent of control [4] [%] | kinase still bound, per cent of control [5] [%] | kinase still bound, per cent of control [6] [%] | kinase still bound, per cent of control [7] [%] | kinase still bound, per cent of control [8] [%] | kinase still bound, per cent of control [9] [%] | kinase still bound, per cent of control [10] [%] | kinase still bound, per cent of control [11] [%] | kinase still bound, per cent of control [12] [%] | kinase still bound, per cent of control [13] [%] | kinase still bound, per cent of control [14] [%] | kinase still bound, per cent of control [15] [%] | kinase still bound, per cent of control [16] [%] | kinase still bound, per cent of control [17] [%] | kinase still bound, per cent of control [18] [%] | kinase still bound, per cent of control [19] [%] | kinase still bound, per cent of control [20] [%] | further results
1 | CS(=O)(=O)N1CCN(Cc2cc3nc(-c4cccc5[nH]ncc45)nc(N4CCOCC4)c3s2)CC1 | 100 | 100 | 100 | 5.2 | 100 | 100 | 100 | 100 | 100 | 100 | 100 | 100 | 100 | 100 | 100 | 100 | 100 | 100 | 100 | 100 | kinase still bound, per cent of control [21]: 100%; kinase still bound, per cent of control [22]: 100%; kinase still bound, per cent of control [23]: 100%; kinase still bound, per cent of control [24]: 100%; kinase still bound, per cent of control [25]: 100%; kinase still bound, per cent of control [26]: 100%; kinase still bound, per cent of control [27]: 100%; kinase still bound, per cent of control [28]: 100%; kinase still bound, per cent of control [29]: 100%; kinase still bound, per cent of control [30]: 100%; kinase still bound, per cent of control [31]: 100%; kinase still bound, per cent of control [32]: 100%; kinase still bound, per cent of control [33]: 100%; kinase still bound, per cent of control [34]: 100%; kinase still bound, per cent of control [35]: 100%
2 | COc1cc(N2CCN(C)CC2)ccc1Nc1ncc2c(n1)N(C)c1ccccc1C(=O)N2C | 100 | 100 | 100 | 33 | 0.45 | 100 | 100 | 100 | 100 | 100 | 100 | 100 | 100 | 100 | 100 | 100 | 100 | 100 | 100 | 100 | kinase still bound, per cent of control [36]: 100%; kinase still bound, per cent of control [37]: 100%; kinase still bound, per cent of control [38]: 100%; kinase still bound, per cent of control [39]: 100%; kinase still bound, per cent of control [21]: 100%; kinase still bound, per cent of control [22]: 26%; kinase still bound, per cent of control [23]: 100%; kinase still bound, per cent of control [24]: 100%; kinase still bound, per cent of control [25]: 100%; kinase still bound, per cent of control [26]: 100%; kinase still bound, per cent of control [27]: 100%; kinase still bound, per cent of control [28]: 16%; kinase still bound, per cent of control [29]: 100%; kinase still bound, per cent of control [30]: 100%; kinase still bound, per cent of control [31]: 100%; kinase still bound, per cent of control [32]: 100%; kinase still bound, per cent of control [33]: 100%; kinase still bound, per cent of control [34]: 32%; kinase still bound, per cent of control [35]: 100%
